Values after ≈ are worked out from the molar mass of the structure shown. Where two headings read alike, the source gives them in different places.
Experiments:
Assay in all cases: In vitro MIC, 2010 surveillance isolates
[1] = test system: E. coli ESBL−; assay type: cell-based, Escherichia coli; settings: for Cumulative % Inhibition at MIC: N=3376
[2] = test system: E. coli ESBL+; assay type: cell-based, Escherichia coli; settings: for Cumulative % Inhibition at MIC: N=795
[3] = test system: K. pneumoniae ESBL+; assay type: cell-based, Klebsiella pneumoniae; settings: for Cumulative % Inhibition at MIC: N=592
[4] = test system: K. oxytoca; assay type: cell-based; settings: for Cumulative % Inhibition at MIC: N=377
[5] = test system: E. cloacae CeftazS; assay type: cell-based; settings: for Cumulative % Inhibition at MIC: N=550
[6] = test system: E. cloacae CeftazR; assay type: cell-based; settings: for Cumulative % Inhibition at MIC: N=254

Work on `CN(C)c1cc(CNCC(C)(C)C)c(O)c2c1C[C@H]1C[C@H]3[C@H](N(C)C)C(O)=C(C(N)=O)C(=O)[C@@]3(O)C(O)=C1C2=O` [Compound 1, 9-[(2,2-dimethyl-propylamino)-methyl]-minocycline] yielded an MIC90 ([1]; Asia/Pac, N=282) of 2 µg/mL (≈ 3.59 µM), an MIC90 ([1]; Escherichia coli, ESBL-negative E. coli, read-out: MIC90) of 2 µg/mL (≈ 3.59 µM) and an MIC90 ([1]; Europe, N=1533) of 2 µg/mL (≈ 3.59 µM). The MIC90 ([1]; L. Amer, N=389) was 2 µg/mL (≈ 3.59 µM), the “Cumulative % Inhibition at MIC” value ([1]; MIC 1 μg/ml) was 84.2% and the “Cumulative % Inhibition at MIC” value ([1]; MIC 2 μg/ml) was 95.9%. The “Cumulative % Inhibition at MIC” value ([1]; MIC 4 μg/ml) was 99.3%, the “Cumulative % Inhibition at MIC” value ([1]; MIC 8 μg/ml) was 99.9% and the “Cumulative % Inhibition at MIC” value ([1]; MIC 16 μg/ml) was 100%. For the same compound, the “Cumulative % Inhibition at MIC” value ([1]; MIC ≤0.5 μg/ml, listed as head image P00005) was 54.2%, the “Cumulative % Inhibition at MIC” value ([1]; MIC ≥32 μg/ml) was 100% and the MIC90 ([1]; N America, N=1172) was 2 µg/mL (≈ 3.59 µM). The MIC90 ([2]; Asia/Pac, N=219) was 2 µg/mL (≈ 3.59 µM), the MIC90 ([2]; ESBL-producing E. coli) was 4 µg/mL (≈ 7.19 µM) and the MIC90 ([2]; Escherichia coli, ESBL-producing E. coli, read-out: MIC90) was < 4 µg/mL. For the same compound, the MIC90 ([2]; Europe, N=274) was 4 µg/mL (≈ 7.19 µM), the MIC90 ([2]; L. Amer, N=168) was 4 µg/mL (≈ 7.19 µM) and the “Cumulative % Inhibition at MIC” value ([2]; MIC 1 μg/ml) was 63.0%. For the same compound, the “Cumulative % Inhibition at MIC” value ([2]; MIC 2 μg/ml) was 87.5%, the “Cumulative % Inhibition at MIC” value ([2]; MIC 4 μg/ml) was 97.7% and the “Cumulative % Inhibition at MIC” value ([2]; MIC 8 μg/ml) was 99.5%. The “Cumulative % Inhibition at MIC” value ([2]; MIC 16 μg/ml) was 99.9%, the “Cumulative % Inhibition at MIC” value ([2]; MIC ≤0.5 μg/ml, listed as head image P00006) was 30.4% and the “Cumulative % Inhibition at MIC” value ([2]; MIC ≥32 μg/ml) was 100%. For the same compound, the MIC90 ([2]; N America, N=134) was 4 µg/mL (≈ 7.19 µM), the MIC90 ([3]; Asia/Pac, N=124) was 16 µg/mL (≈ 28.7 µM) and the MIC90 ([3]; Europe, N=151) was 8 µg/mL (≈ 14.4 µM). The MIC90 ([3]; L. Amer, N=209) was 16 µg/mL (≈ 28.7 µM), the “Cumulative % Inhibition at MIC” value ([3]; MIC 1 μg/ml) was 19.3% and the “Cumulative % Inhibition at MIC” value ([3]; MIC 2 μg/ml) was 56.8%. The “Cumulative % Inhibition at MIC” value ([3]; MIC 4 μg/ml) was 79.6%, the “Cumulative % Inhibition at MIC” value ([3]; MIC 8 μg/ml) was 90.2% and the “Cumulative % Inhibition at MIC” value ([3]; MIC 16 μg/ml) was 94.8%. The “Cumulative % Inhibition at MIC” value ([3]; MIC ≤0.5 μg/ml, listed as head image P00010) was 1.7%, the “Cumulative % Inhibition at MIC” value ([3]; MIC ≥32 μg/ml) was 100% and the MIC90 ([3]; N America, N=108) was 16 µg/mL (≈ 28.7 µM). The MIC90 ([4]; Asia/Pac, N=17) was 2 µg/mL (≈ 3.59 µM), the MIC90 ([4]; Europe, N=158) was 2 µg/mL (≈ 3.59 µM) and the MIC90 ([4]; L. Amer, N=25) was 4 µg/mL (≈ 7.19 µM). For the same compound, the “Cumulative % Inhibition at MIC” value ([4]; MIC 1 μg/ml) was 57.6%, the “Cumulative % Inhibition at MIC” value ([4]; MIC 2 μg/ml) was 89.4% and the “Cumulative % Inhibition at MIC” value ([4]; MIC 4 μg/ml) was 95.2%. For the same compound, the “Cumulative % Inhibition at MIC” value ([4]; MIC 8 μg/ml) was 98.7%, the “Cumulative % Inhibition at MIC” value ([4]; MIC 16 μg/ml) was 99.7% and the “Cumulative % Inhibition at MIC” value ([4]; MIC ≤0.5 μg/ml, listed as head image P00013) was 2.1%. For the same compound, the “Cumulative % Inhibition at MIC” value ([4]; MIC ≥32 μg/ml) was 100%, the MIC90 ([4]; N America, N=177) was 4 µg/mL (≈ 7.19 µM) and the MIC90 ([5]; Asia/Pac, N=100) was 4 µg/mL (≈ 7.19 µM). For the same compound, the MIC90 ([5]; Europe, N=183) was 4 µg/mL (≈ 7.19 µM), the MIC90 ([5]; L. Amer, N=57) was 8 µg/mL (≈ 14.4 µM) and the “Cumulative % Inhibition at MIC” value ([5]; MIC 1 μg/ml) was 15.3%. For the same compound, the “Cumulative % Inhibition at MIC” value ([5]; MIC 2 μg/ml) was 70.5%, the “Cumulative % Inhibition at MIC” value ([5]; MIC 4 μg/ml) was 93.3% and the “Cumulative % Inhibition at MIC” value ([5]; MIC 8 μg/ml) was 95.6%. For the same compound, the “Cumulative % Inhibition at MIC” value ([5]; MIC 16 μg/ml) was 97.8%, the “Cumulative % Inhibition at MIC” value ([5]; MIC ≤0.5 μg/ml, listed as head image P00014) was 0.5% and the “Cumulative % Inhibition at MIC” value ([5]; MIC ≥32 μg/ml) was 100%. For the same compound, the MIC90 ([5]; N America, N=210) was 4 µg/mL (≈ 7.19 µM), the MIC90 ([6]; Asia/Pac, N=63) was 8 µg/mL (≈ 14.4 µM) and the MIC90 ([6]; Europe, N=72) was 8 µg/mL (≈ 14.4 µM). For the same compound, the MIC90 ([6]; L. Amer, N=42) was 4 µg/mL (≈ 7.19 µM), the “Cumulative % Inhibition at MIC” value ([6]; MIC 1 μg/ml) was 7.9% and the “Cumulative % Inhibition at MIC” value ([6]; MIC 2 μg/ml) was 54.3%. The “Cumulative % Inhibition at MIC” value ([6]; MIC 4 μg/ml) was 81.9%, the “Cumulative % Inhibition at MIC” value ([6]; MIC 8 μg/ml) was 90.2% and the “Cumulative % Inhibition at MIC” value ([6]; MIC 16 μg/ml) was 94.1%. The “Cumulative % Inhibition at MIC” value ([6]; MIC ≤0.5 μg/ml, listed as head image P00015) was 0.4%.
